Results reported in patent US8864853B2, “Additive mixture for the bactericidal and anticorrosive additization of fuels” (l'Air Liquide Societe Anonyme pour l'etude et …, priority 2009, dated 2014).

Assay: Example 1: visual appearance of diesel with Cu or brass sheet
Assay type: physicochemical
Conditions: evaluation of Example 1; diesel oil with 5% FAME; time delay, concentration-dependent, turbulent flow
Experimental: Materials used: • 3,3′-methylenebis(5-methyloxazolidine) • brass 63 (100×20×1 mm), Cat. No.: 16-24 from Riegger Industriehandel, Reinbek, Federal Republic of Germany • E-copper ((100×20×1 mm), Cat. No.: 15-54 from Riegger • diesel fuel to EN 590, with 5% (V/V) fatty acid methyl ester
Procedure: The solutions and the metal sheet were each introduced into a 500 ml wide-neck bottle. Solutions 1A-1C were not stirred; solutions 1D-1G were stirred with a magnetic stirrer. The appearance of the solutions was assessed visually.

CC1CN(CN2COC(C)C2)CO1 (stereo not shown) [3,3′-methylenebis(5-methyloxazolidine)]
compatibility as an additive to diesel oil in contact with copper or nonferrous metal: incompatible
